Measurements reported in ChEMBL document CHEMBL1130664, “Syntheses and antitumor activity of cis-restricted combretastatins: 5-membered heterocyclic analogues” (Bioorg Med Chem Lett, 1998).

Experiments:
[1] = test system: Colon 26; test: In vitro cytotoxicity against colon 26 adenocarcinoma cell line was evaluated.; assay type: functional, cell-based; settings: Mus musculus
[2] = test system: Colon 26; test: […] activity evaluated as tumor suppression against colon 26 murine tumor model at a dose 40 mg/kg after intravenous administration; assay type: functional, Mus musculus
[3] = target: Tubulin (Bos taurus, UniProt Q6B856+Q862L2+Q862F3); test: Tubulin polymerization inhibitory activity using bovine brain tubulin; assay type: functional
[4] = test system: Colon 26; test: […] activity evaluated as tumor suppression against colon 26 murine tumor model at a dose 20 mg/kg after intravenous administration; assay type: functional, Mus musculus
[5] = test system: Colon 26; test: […] activity evaluated as tumor suppression against colon 26 murine tumor model at a dose 160 mg/kg after intravenous administration; assay type: functional, Mus musculus
[6] = test system: Colon 26; test: […] activity evaluated as tumor suppression against colon 26 murine tumor model at a dose 160 mg/kg after subcutaneous administration; assay type: functional, Mus musculus
[7] = test system: Colon 26; test: […] activity evaluated as tumor suppression against colon 26 murine tumor model at a dose 80 mg/kg after intravenous administration; assay type: functional, Mus musculus
[8] = test system: Colon 26; test: […] activity evaluated as tumor suppression against colon 26 murine tumor model at a dose 5 mg/kg after intravenous administration; assay type: functional, organism-based; design: dose 5 mg/kg; settings: Mus musculus

Compound | IC50 [3] | IC50 [1] | other results
COc1ccc(/C=C\c2cc(OC)c(OC)c(OC)c2)cc1N.Cl |  | 2.8 nM | IR [2]: 73%
COc1ccc(-c2c([Si](C)(C)C)n[nH]c2-c2cc(OC)c(OC)c(OC)c2)cc1N | > 10000 nM | > 3000 nM | 
COc1ccc(-c2c[nH]nc2-c2cc(OC)c(OC)c(OC)c2)cc1N | 3000 nM | 8.4 nM | IR [4]: 0%
COc1ccc(-c2nnnn2-c2cc(OC)c(OC)c(OC)c2)cc1N | 2000 nM | 7.2 nM | IR [6]: 89%
COc1ccc(-c2sc(NN)nc2-c2cc(OC)c(OC)c(OC)c2)cc1N | 3000 nM | 21.1 nM | IR [7]: 55%
COc1ccc(-c2sc(N)nc2-c2cc(OC)c(OC)c(OC)c2)cc1N | 1000 nM | 57.5 nM | IR [2]: 75%
CISPLATIN |  |  | IR [8]: 64%

Continued, in another order:

IC50 [3] | Compound | IC50 [1] | other results
4000 nM | COc1ccc(-c2nncn2-c2cc(OC)c(OC)c(OC)c2)cc1N | 840 nM | IR [5]: 47%
2000 nM | COc1ccc(-c2sc(C)nc2-c2cc(OC)c(OC)c(OC)c2)cc1N | 2040 nM | IR [2]: 24%
3000 nM | COc1ccc(-c2scnc2-c2cc(OC)c(OC)c(OC)c2)cc1N | 14.5 nM | IR [5]: 66%
> 10000 nM | COc1ccc(-c2nnc(C)n2-c2cc(OC)c(OC)c(OC)c2)cc1N | > 3000 nM | 
> 10000 nM | COc1ccc(-c2nnc(O)n2-c2cc(OC)c(OC)c(OC)c2)cc1N | > 3000 nM | 
> 10000 nM | COc1ccc(-c2nnc(N)n2-c2cc(OC)c(OC)c(OC)c2)cc1N | > 3000 nM | 
